The conditions of data set [1]: cited from earlier work.
Data set [2] is described as follows: Release of small molecule cargo loaded in the PCL fibers. It counts as physicochemical. As to the method: FIG. 21 depicts FITC (50-500 ng) released from the fibers over the course of 90 days. FITC was loaded in the mixture of the PCL solution similar to grazoprevir loaded meshes. (n=4)
Doxorubicin was loaded in the mixture of the PCL solution similar to grazoprevir loaded meshes. (n=3)
When used with primary CD8+ HER2-targeted NS3 CAR T cells with the same grazoprevir-dependent CARs, the […] were excited (CD69 expression) when co-cultured with the meshes and HER2-expression NALM6 cells (FIG. 19).
The meshes ability to release doxorubicin over time was characterized as a functional delivery method for chemotherapeutic drugs.

The values below come from patent publication US11819578B2, “Nanofiber scaffolds” (Trustees of Boston University, priority 2021, dated 2023).

As a reminder, the log P is the decadic logarithm of the partition coefficient of the neutral form, usually between octanol and water.

With `O=C1OC2(c3ccc(O)cc3Oc3cc(O)ccc32)c2ccc(N=C=S)cc21` [FITC], the lipophilicity (log P) in data set [1] is given as 4.8. In data set [2] (FITC 50-500 ng loaded in the PCL solution, n=4), the “period of release from the fibers” value was 90 days.

With `COc1cccc2c1C(=O)c1c(O)c3c(c(O)c1C2=O)C[C@@](O)(C(=O)CO)C[C@@H]3O[C@H]1C[C@H](N)[C@H](O)[C@H](C)O1` [doxorubicin], the “period of release from the fibers” value in data set [2] (500 ug doxorubicin loaded in the PCL solution, n=3) was found to be 28 days. Besides, the “release over time in vitro” value in data set [2] (in vitro, in words) was “several weeks to months”.

Take `C=C[C@@H]1C[C@]1(NC(=O)[C@@H]1C[C@@H]2CN1C(=O)[C@H](C(C)(C)C)NC(=O)O[C@@H]1C[C@H]1CCCCCc1nc3ccc(OC)cc3nc1O2)C(=O)NS(=O)(=O)C1CC1.O` [grazoprevir]: the “log P” value in data set [1] is 4.7.
